# Data published in patent US9884040B2, “Desethylamiodarone for use in cancer treatment” (PÉCSI TUDOMÁNYEGYETEM, priority 2015, dated 2018).
# Tests used:
# [1] = tested on: 4T1 (mouse mammary carcinoma) cells; experiment: MTT cell viability assay, 4T1; format: cell-based; conditions: 24 h and 48 h; 2.5, 5, 7.5 or 10 μM; vs untreated control
# Procedure: The cells were seeded into 96-well plates at a starting density of 10^4 cells per well and cultured overnight before DEA was added to the medium for 24 h and 48 h. […] The amount of blue formazan dye formed from MTT+ was proportional to the number of live cells, and was determined with an Anthos Labtech 2010 ELISA reader at 550 nm. All experiments were run in at least 4 replicates and repeated 3 times. The effect of desethylamiodarone was measured in T24 (human urinary bladder carcinoma), A549 (human lung adenocarcinoma epithelial), B16F10 (mice melanoma), HeLa (human cervix adenocarcinoma), 4T1 (mouse mammary carcinoma) cell lines. Cells were treated with increasing concentrations of desethylamiodarone for 24 and 48 h. Cell growth was assessed by measuring metabolic activity, which reflects viability in the MTT-test in the course of 24 h, 48 h of continued exposure to desethylamiorarone. The untreated cells served as negative controls. The viability of the cells, was lower in all DEA-treated than in the control group, with the difference being statistically significant. […] 4T1 cells were incubated with the indicated concentrations (2.5, 5, 7.5 or 10 μM) of desethylamiodarone for 24 h and 48 h and cell viability was measured by MTT assay (filled bars). Untreated cells served as controls. Data represent means±S.E.M. of three independent experiments, each running in four replicates.
# [2] = tested on: HeLa (human cervix adenocarcinoma) cells; experiment: MTT cell viability assay, HeLa; format: cell-based; conditions: increasing concentrations, 24 and 48 h
# Procedure: The cells were seeded into 96-well plates at a starting density of 10^4 cells per well and cultured overnight before DEA was added to the medium for 24 h and 48 h. The medium was changed to a fresh one containing 0.5% of 3-[4,5-dimethylthiazol-2-yl]-2,5-diphenyl-tetrazolium bromide (MTT+) for an additional 3 hours, then the MTT+ reaction was terminated by adding HCl to 10 mM final concentration. The amount of blue formazan dye formed from MTT+ was proportional to the number of live cells, and was determined with an Anthos Labtech 2010 ELISA reader at 550 nm. All experiments were run in at least 4 replicates and repeated 3 times.
# The effect of desethylamiodarone was measured in T24 (human urinary bladder carcinoma), A549 (human lung adenocarcinoma epithelial), B16F10 (mice melanoma), HeLa (human cervix adenocarcinoma), 4T1 (mouse mammary carcinoma) cell lines. Cells were treated with increasing concentrations of desethylamiodarone for 24 and 48 h. Cell growth was assessed by measuring metabolic activity, which reflects viability in the MTT-test in the course of 24 h, 48 h of continued exposure to desethylamiorarone. The untreated cells served as negative controls. The viability of the cells, was lower in all DEA-treated than in the control group, with the difference being statistically significant.
smiles,measurement,setting,value
"CCCCc1oc2ccccc2c1C(=O)c1cc(I)c(OCCNCC)c(I)c1 [DEA, (2-butyl-3-benzofuranyl)[4-[2-(ethylamino)ethoxy]-3,5-diiodophenyl]-methanone]",Viability of 4T1 cells (MTT),[1],Significantly different from control group at p<0.05
same,Viability of HeLa cells (MTT),[2],significantly inhibited the viability
